This passage reports CC50 and HC50 results from ChEMBL document CHEMBL4811230, “In Planta Discovery and Chemical Synthesis of Bracelet Cystine Knot Peptides from Rinorea bengalensis” (J Nat Prod, 2021).

The test system of data set [1] is PC-3. Kind of data set: Cytotoxicity against human PC-3 cells assessed as decrease in cell viability measured after 24 hrs by MTT assay. The format is functional.
The subject of data set [2] is MDA-MB-231. Kind of data set: Cytotoxicity against human MDA-MB-231 cells assessed as decrease in cell viability measured after 24 hrs by MTT assay. Format: functional.
The nature of data set [3]: Hemolytic activity against human RBC incubated for 1 hr. Format: ADME, cell-based, Erythrocyte. The settings on record: red blood cells (erythrocytes), read-out: CC50.
Data set [4] in a line: Cytotoxicity against HUVEC cells assessed as decrease in cell viability measured after 24 hrs by MTT assay. The settings on record: human. Format: cell-based. (Formazan colour is commonly taken as a measure of viable cells.)

Starred links: 1 amine or outer side, 2 acyl side, 3 side chain; linkers in the order of their positions; H or OH if unused. Positions of bridges follow the written chain, without caps; N, C: chain ends. Non-standard residues stand in square brackets, D forms with d. Residues, ends and D or L forms follow the SMILES beside them. X1 = CN[C@@H](C)[C@H](N[*:1])C(=O)[*:2] Where only a bound is given, the exact number is not on record here.

For the molecule `CC[C@H](C)[C@@H]1NC(=O)[C@H](CCCNC(=N)N)NC(=O)CNC(=O)[C@H](CCCCN)NC(=O)[C@@H]2CSSC[C@@H]3NC(=O)[C@H](CO)NC(=O)[C@H](CCC(=O)O)NC(=O)CNC(=O)[C@@H]4CSSC[C@H](NC(=O)CNC(=O)[C@H]([C@@H](C)CC)NC(=O)[C@H](C(C)C)NC(=O)[C@H](CO)NC(=O)[C@H]([C@@H](C)O)NC(=O)[C@H](Cc5ccccc5)NC(=O)[C@H](CSSC[C@H](NC1=O)C(=O)N[C@@H](C(C)C)C(=O)N[C@@H](CCCNC(=N)N)C(=O)N[C@@H](Cc1ccccc1)C(=O)N[C@@H](CCC(N)=O)C(=O)N4)NC(=O)[C@H](Cc1ccc(O)cc1)NC(=O)[C@H]([C@@H](C)O)NC(=O)[C@H]([C@@H](C)O)NC(=O)[C@H]([C@@H](C)CC)NC(=O)[C@H](CCSC)NC(=O)CNC3=O)C(=O)N[C@@H](CO)C(=O)N2` (cyclo(CFTSVIGCSCKGRICVRFQCGESCGMITTY); disulfide 1-15, 8-20, 10-24) [listing 1 of 2 here], the CC50 (in general, the concentration at which the toxic effect on the cells reaches its halfway point) in data set [1] is 1300 nM; in data set [2] it was 4100 nM.
Take `CC[C@H](C)[C@@H]1NC(=O)[C@H](CCCNC(=N)N)NC(=O)CNC(=O)[C@H](CCCCN)NC(=O)[C@@H]2CSSC[C@@H]3NC(=O)[C@H](CO)NC(=O)[C@H](CCC(=O)O)NC(=O)CNC(=O)[C@@H]4CSSC[C@H](NC(=O)CNC(=O)[C@H]([C@@H](C)CC)NC(=O)[C@H](C(C)C)NC(=O)[C@H](CO)NC(=O)[C@H]([C@@H](C)O)NC(=O)[C@H](Cc5ccccc5)NC(=O)[C@H](CSSC[C@H](NC1=O)C(=O)N[C@@H](C(C)C)C(=O)N[C@@H](CCCNC(=N)N)C(=O)N[C@@H](Cc1ccccc1)C(=O)N[C@@H](CCC(N)=O)C(=O)N4)NC(=O)[C@H](Cc1ccc(O)cc1)NC(=O)[C@H]([C@@H](C)O)NC(=O)[C@H]([C@@H](C)O)NC(=O)[C@H]([C@@H](C)CC)NC(=O)[C@H](CCSC)NC(=O)CNC3=O)C(=O)N[C@@H](CO)C(=O)N2` (cyclo(CFTSVIGCSCKGRICVRFQCGESCGMITTY); disulfide 1-15, 8-20, 10-24) [listing 2 of 2 here]: the HC50 at 1 h in data set [3] was greater than 33 µM. Also, the 50% cytotoxic concentration (CC50) at 24 h in data set [4] was 1200 nM.
For `CC[C@H](C)[C@@H]1NC(=O)[C@@H]2CSSC[C@@H]3NC(=O)[C@H](C(C)C)NC(=O)[C@H](CCCCN)NC(=O)[C@H](CC(N)=O)NC(=O)[C@H](CCC(N)=O)NC(=O)[C@@H]4CSSC[C@H](NC(=O)[C@H](CO)NC(=O)[C@H](CCC(=O)O)NC(=O)CNC(=O)[C@H](CSSC[C@H](NC(=O)CNC(=O)[C@H]([C@H](C)NC)NC(=O)[C@H](C(C)C)NC(=O)[C@H](C)NC(=O)[C@H](CO)NC1=O)C(=O)N[C@@H](CCCCN)C(=O)N4)NC(=O)[C@@H]1CCCN1C(=O)[C@H]([C@@H](C)CC)NC(=O)[C@H](C)NC(=O)[C@H](CCCNC(=N)N)NC(=O)[C@H](Cc1ccc(O)cc1)NC3=O)C(=O)N[C@@H](C(C)C)C(=O)N[C@@H](Cc1ccc(O)cc1)C(=O)N[C@@H]([C@@H](C)CC)C(=O)N1CCC[C@H]1C(=O)N2` (cyclo(AIPCGESCVYIPCISAV[X1]GCKCQNKVCYR); disulfide 4-20, 8-22, 13-27) [listing 1 of 2 here], the HC50 at 1 h in data set [3] is 20.1 µM.
For the molecule `CC[C@H](C)[C@@H]1NC(=O)[C@H](CC(C)C)NC(=O)[C@H](C)NC(=O)[C@H]([C@H](C)O)NC(=O)[C@H](C(C)C)NC(=O)[C@H]([C@H](C)O)NC(=O)[C@H](CS)NC(=O)[C@@H]2CCCN2C1=O`, in data set [3], the HC50 at 1 h came to 21.9 µM. Besides, the CC50 at 24 h in data set [4] came out at 900 nM. The figures for the half-maximal cytotoxic concentration (CC50) in data set [1] and in data set [2] were 700 nM and 1500 nM, respectively.
Turning to `CC[C@H](C)[C@@H]1NC(=O)[C@@H]2CSSC[C@@H]3NC(=O)[C@H](C(C)C)NC(=O)[C@H](CCCCN)NC(=O)[C@H](CC(=O)NN)NC(=O)[C@H](CCCCN)NC(=O)[C@@H]4CSSC[C@H](NC(=O)[C@H](CO)NC(=O)[C@H](CCC(=O)O)NC(=O)CNC(=O)[C@H](CSSC[C@H](NC(=O)CNC(=O)[C@H]([C@@H](C)CC)NC(=O)[C@H](C(C)C)NC(=O)[C@H](CCC(N)=O)NC(=O)[C@H](CO)NC1=O)C(=O)N[C@@H](CCCCN)C(=O)N4)NC(=O)[C@@H]1CCCN1C(=O)[C@H]([C@@H](C)CC)NC(=O)[C@H](C)NC(=O)[C@H](CCCNC(=N)N)NC(=O)[C@H](Cc1ccc(O)cc1)NC3=O)C(=O)N[C@@H](C(C)C)C(=O)N[C@@H](Cc1ccc(O)cc1)C(=O)N[C@@H]([C@@H](C)CC)C(=O)N1CCC[C@H]1C(=O)N2`, the 50% cytotoxic concentration (CC50) at 24 h in data set [4] worked out at 1000 nM. Moreover, the cytotoxic concentration (CC50) in data set [1] was 1500 nM; in data set [2] it was 2200 nM.
For the molecule `CC[C@H](C)[C@@H]1NC(=O)[C@H](C)NC(=O)[C@H](CO)NC(=O)[C@H](CO)NC(=O)[C@H]([C@@H](C)CC)NC(=O)[C@@H]2CSSC[C@@H]3NC(=O)[C@H](C(C)C)NC(=O)[C@H](CCCCN)NC(=O)[C@H](CO)NC(=O)[C@H](CCCCN)NC(=O)[C@@H]4CSSC[C@H](NC(=O)[C@H](CO)NC(=O)[C@H](CCC(=O)O)NC(=O)CNC(=O)[C@H](CSSC[C@H](NC(=O)CNC1=O)C(=O)N[C@@H](CO)C(=O)N4)NC(=O)[C@@H]1CCCN1C(=O)[C@H]([C@@H](C)CC)NC(=O)CNC(=O)[C@H](CC(N)=O)NC(=O)[C@H](CCCNC(=N)N)NC(=O)[C@H](Cc1ccc(O)cc1)NC3=O)C(=O)N[C@@H](C(C)C)C(=O)N[C@@H](Cc1c[nH]c3ccccc13)C(=O)N[C@@H]([C@@H](C)CC)C(=O)N1CCC[C@H]1C(=O)N2` (cyclo(AIGCSCKSKVCYRNGIPCGESCVWIPCISS); disulfide 4-18, 6-22, 11-27), the HC50 at 1 h in data set [3] came out at 18.5 µM. In data set [4], the CC50 at 24 h came to 500 nM. Besides, the CC50 is 600 nM in data set [1] and 1100 nM in data set [2].
With `CC[C@H](C)[C@@H]1CC(=O)[C@H](C)NC(=O)[C@H](CCCNC(=N)N)NC(=O)[C@H](Cc2ccc(O)cc2)NC(=O)[C@@H]2CSSC[C@@H]3NC(=O)[C@@H]4CCCN4C(=O)[C@H]([C@@H](C)CC)NC(=O)[C@H](Cc4ccc(O)cc4)NC(=O)[C@H](C(C)C)NC(=O)[C@@H]4CSSC[C@H](NC(=O)[C@H](CO)NC(=O)[C@H](CSSC[C@H](NC(=O)[C@@H]5CCCN5C1=O)C(=O)NCC(=O)N[C@@H](CCC(=O)O)C(=O)N[C@@H](CO)C(=O)N4)NC(=O)CNC(=O)[C@H]([C@@H](C)CC)NC(=O)[C@H](C)NC(=O)[C@H](C)NC(=O)[C@H]([C@H](C)O)NC(=O)[C@H](CC(C)C)NC3=O)C(=O)N[C@@H](CCCCN)C(=O)N[C@@H](CC(N)=O)C(=O)N[C@@H](CCCCN)C(=O)N[C@@H](C(C)C)C(=O)N2`, in data set [4], the CC50 at 24 h was determined as 200 nM. In addition, the cytotoxic concentration (CC50) in data set [1] amounted to 300 nM; in data set [2], 600 nM.
Consider `CC(C)C[C@@H]1NC(=O)CNC(=O)[C@H](CC(N)=O)NC(=O)[C@H](CCCNC(=N)N)NC(=O)[C@H]([C@@H](C)O)NC(=O)[C@@H]2CSSC[C@@H]3NC(=O)[C@H]([C@@H](C)O)NC(=O)CNC(=O)CNC(=O)[C@H](C(C)C)NC(=O)[C@@H]4CSSC[C@H](NC(=O)[C@H]([C@@H](C)O)NC(=O)[C@H](CSSC[C@H](NC(=O)[C@H](C(C)C)NC(=O)[C@@H]5CCCN5C1=O)C(=O)NCC(=O)N[C@@H](CCC(=O)O)C(=O)N[C@@H]([C@@H](C)O)C(=O)N4)NC(=O)CNC(=O)[C@@H]1CCCN1C(=O)[C@H]([C@@H](C)O)NC(=O)[C@H](CC(N)=O)NC3=O)C(=O)N[C@@H](CO)C(=O)N[C@@H](Cc1c[nH]c3ccccc13)C(=O)N1CCC[C@H]1C(=O)N[C@@H](C(C)C)C(=O)N2`, for which the half-maximal cytotoxic concentration (CC50) in data set [1] is 3100 nM; in data set [2], 5100 nM.
With `CC[C@H](C)[C@@H]1NC(=O)[C@@H]2CSSC[C@@H]3NC(=O)[C@H](C(C)C)NC(=O)[C@H](CCCCN)NC(=O)[C@H](CC(N)=O)NC(=O)[C@H](CCCCN)NC(=O)[C@@H]4CSSC[C@H](NC(=O)[C@H](CO)NC(=O)[C@H](CCC(=O)O)NC(=O)CNC(=O)[C@H](CSSC[C@H](NC(=O)CNC(=O)[C@H]([C@@H](C)CC)NC(=O)[C@H](C(C)C)NC(=O)[C@H](CO)NC(=O)[C@H](CO)NC1=O)C(=O)N[C@@H](CO)C(=O)N4)NC(=O)[C@@H]1CCCN1C(=O)[C@H]([C@@H](C)CC)NC(=O)[C@H](C)NC(=O)[C@H](CCCNC(=N)N)NC(=O)[C@H](Cc1ccc(O)cc1)NC3=O)C(=O)N[C@@H](C(C)C)C(=O)N[C@@H](Cc1ccc(O)cc1)C(=O)N[C@@H]([C@@H](C)CC)C(=O)N1CCC[C@H]1C(=O)N2` (cyclo(AIPCGESCVYIPCISSVIGCSCKNKVCYR); disulfide 4-20, 8-22, 13-27), in data set [3], the HC50 at 1 h was 8.8 µM. Moreover, the CC50 in data set [1] came to 500 nM; in data set [2], 800 nM.
For the molecule `CC[C@H](C)[C@@H]1NC(=O)[C@@H]2CSSC[C@@H]3NC(=O)[C@H](C(C)C)NC(=O)[C@H](CCCCN)NC(=O)[C@H](CC(N)=O)NC(=O)[C@H](CCC(N)=O)NC(=O)[C@@H]4CSSC[C@H](NC(=O)[C@H](CO)NC(=O)[C@H](CCC(=O)O)NC(=O)CNC(=O)[C@H](CSSC[C@H](NC(=O)CNC(=O)[C@H]([C@H](C)NC)NC(=O)[C@H](C(C)C)NC(=O)[C@H](C)NC(=O)[C@H](CO)NC1=O)C(=O)N[C@@H](CCCCN)C(=O)N4)NC(=O)[C@@H]1CCCN1C(=O)[C@H]([C@@H](C)CC)NC(=O)[C@H](C)NC(=O)[C@H](CCCNC(=N)N)NC(=O)[C@H](Cc1ccc(O)cc1)NC3=O)C(=O)N[C@@H](C(C)C)C(=O)N[C@@H](Cc1ccc(O)cc1)C(=O)N[C@@H]([C@@H](C)CC)C(=O)N1CCC[C@H]1C(=O)N2` (cyclo(AIPCGESCVYIPCISAV[X1]GCKCQNKVCYR); disulfide 4-20, 8-22, 13-27) [listing 2 of 2 here], the CC50 in data set [1] came to 1200 nM; in data set [2], 2300 nM.
